According to ChEMBL document CHEMBL5154820 (Eur J Med Chem, 2022):

How the values were obtained:
[1] = biological target: Tubulin (Sus scrofa) (UniProt P02554+P02550); assay: Inhibition of pig brain tubulin polymerization at 12.5 uM by spectrophotometer analysis relative to control; design: scale not given: the % may be the effect or the level left; conditions: Sus scrofa domesticus
[2] = system: HeLa; assay: Induction of cell cycle arrest in human HeLa cells assessed as < 2N cells at 0.1 uM measured after 24 hrs by propidium iodide staining based flow cytometric analysis analysis ( Rvb = 7.07%); format: functional
[3] = system: HeLa; assay: Induction of cell cycle arrest in human HeLa cells assessed as < 2N cells at 0.4 uM measured after 24 hrs by propidium iodide staining based flow cytometric analysis analysis ( Rvb = 7.07%); format: functional
[4] = system: HeLa; assay: Induction of cell cycle arrest in human HeLa cells assessed as 2N cells at 0.2 uM measured after 24 hrs by propidium iodide staining based flow cytometric analysis analysis ( Rvb = 47.4%); format: functional
[5] = system: HeLa; assay: Induction of cell cycle arrest in human HeLa cells assessed as 4N cells at 0.1 uM measured after 24 hrs by propidium iodide staining based flow cytometric analysis analysis ( Rvb = 20.3%); format: functional
[6] = system: HeLa; assay: Induction of cell cycle arrest in human HeLa cells assessed as >4N cells at 0.1 uM measured after 24 hrs by propidium iodide staining based flow cytometric analysis analysis ( Rvb = 8.84%); format: functional
[7] = system: HeLa; assay: Induction of cell cycle arrest in human HeLa cells assessed as accumulation of cells at G2/M phase at 0.1 uM after 24 hrs by propidium iodide staining based flow cytometric analysis (reference value: 20.3%); format: functional
[8] = system: HeLa; assay: Induction of apoptosis in human HeLa cells assessed as viable cells at 0.1 uM measured after 24 hrs by Annexin V-FITC/7-AAD staining based flow cytometric analysis (reference value: 70.1%); format: functional; conditions: read-out: Activity
[9] = system: HeLa; assay: Induction of apoptosis in human HeLa cells assessed as late apoptotic cells at 0.1 uM measured after 24 hrs by Annexin V-FITC/7-AAD staining based flow cytometric analysis (reference value: 8.51%); format: functional
[10] = system: HeLa; assay: Inhibition of colony formation in human HeLa cells at 20 nM and treated for every 48 hrs with fresh medium measured after 14 days by crystal violet staining method ( Rvb = 67.3%); format: functional; design: scale not given: the % may be the effect or the level left; conditions: time 14 day
[11] = system: HeLa; assay: Antimigratory activity against human HeLa cells at 0.2 uM measured after 24 hrs by scratch wound healing based fluorescence inverted microscopic analysis; format: functional
[12] = AUC(0 to t) in C57 nude mouse at 30 mg/kg, ip measured at 0.083 to 24 hrs by LC/MS/MS analysis; format: ADME, organism-based; design: dose 30 mg/kg, time upper 24 hrs, time lower 0.083 hrs, route ip; conditions: in vivo
[13] = Apparent clearance during terminal phase in C57 nude mouse at 30 mg/kg, ip measured at 0.083 to 24 hrs by LC/MS/MS analysis; format: ADME, organism-based; conditions: in vivo, time 0.083-24 hrs, read-out: CLz/F (converted)
[14] = Acute toxicity in ICR female mouse assessed as body weight gain at 100 to 1000 mg/kg, ip measured daily for 14 days; format: organism-based; conditions: in vivo, 336 h, dose 100-1000 mg/kg, time 14 day
[15] = Acute toxicity against ICR mouse assessed as regeneration of renal tubule in kidney at 1000 mg/kg, ip measured after 14 days by H and E staining method; format: organism-based; conditions: in vivo, 336 h, time 14 day
[16] = biological target: hERG (KCNH2) (Homo sapiens, UniProt Q12809); assay: Inhibition of human ERG expressed in CHO cells at 40 uM with holding potential of -80 mV by whole cell patch clamp assay relative to control; format: toxicity, cell-based; conditions: CHO cells that express hERG
[17] = Toxicity in BABL/c mouse xenografted with human HeLa cells assessed as body weight gain at 30 mg/kg, ip administered daily for 21 days followed by addition of 3 mg/kg DDP for every 2 days and measured every 3 days; format: organism-based; conditions: in vivo, 504 h, time 21 day
[18] = Nephrotoxicity in BABL/c mouse assessed as increased creatinine level at 60 mg/kg, ip administered daily for 21 days relative to vehicle; format: toxicity, organism-based; conditions: in vivo, 504 h, time 21 day
[19] = Nephrotoxicity in BABL/c mouse assessed as increased urea nitrogen level at 30 mg/kg, ip administered daily for 21 days followed by addition of 3 mg/kg DDP for every 2 days relative to vehicle; format: toxicity, organism-based; conditions: in vivo, 504 h, time 21 day
[20] = Toxicity against BABL/c mouse assessed as morphological changes in kidney at 30 to 60 mg/kg, ip administered daily for 21 days by H and E staining method; format: organism-based; conditions: in vivo, 504 h, dose 30-60 mg/kg, time 21 day
[21] = system: HeLa; assay: Potency index, ratio of cisplatin IC50 to test compound IC50 for cytotoxicity against human DDP resistant HeLa cells; format: functional
[22] = biological target: Tubulin beta (Homo sapiens) (UniProt P68371+Q9H4B7+Q13509+P04350+Q3ZCM7+P07437+Q13885+Q9BVA1+Q9BUF5+A6NNZ2); assay: Binding affinity to beta-tubulin colchicine binding site in human HeLa cells assessed as decrease of adduct formation by measuring gray value measured at 100 uM incubated for 2 hrs followed by addition of EBI measured after 1.5 hrs by EBI competition based Western blotting analysis; format: cell-based; conditions: time 3.5 hrs
[23] = system: HeLa; assay: Induction of cell cycle arrest in human HeLa cells assessed as 2N cells at 6 nM measured after 24 hrs by propidium iodide staining based flow cytometric analysis analysis ( Rvb = 41.7%); format: functional
[24] = system: HeLa; assay: Induction of cell cycle arrest in human HeLa cells assessed as 4N cells at 1.5 nM measured after 24 hrs by propidium iodide staining based flow cytometric analysis analysis ( Rvb = 17.1%); format: functional
[25] = system: HeLa; assay: Induction of cell cycle arrest in human HeLa cells assessed as >4N cells at 3 nM measured after 24 hrs by propidium iodide staining based flow cytometric analysis analysis relative to control; format: functional
[26] = system: HeLa; assay: Induction of cell cycle arrest in human HeLa cells assessed as accumulation of cells at G2/M phase at 1.5 nM after 24 hrs by propidium iodide staining based flow cytometric analysis (reference value: 17.1%); format: functional
[27] = system: HeLa; assay: Induction of cell cycle arrest in human HeLa cells assessed as accumulation of cells at G2/M phase at 3 nM after 24 hrs by propidium iodide staining based flow cytometric analysis (reference value: 17.1%); format: functional
[28] = system: HeLa; assay: Induction of cell cycle arrest in human HeLa cells assessed as accumulation of cells at G2/M phase at 6 nM after 24 hrs by propidium iodide staining based flow cytometric analysis (reference value: 17.1%); format: functional
[29] = system: HeLa; assay: Induction of apoptosis in human HeLa cells assessed as early apoptotic cells at 1.5 nM measured after 24 hrs by Annexin V-FITC/7-AAD staining based flow cytometric analysis (reference value: 18.8%); format: functional
[30] = system: HeLa; assay: Induction of apoptosis in human HeLa cells assessed as late apoptotic cells at 1.5 nM measured after 24 hrs by Annexin V-FITC/7-AAD staining based flow cytometric analysis (reference value: 5.22%); format: functional
[31] = system: HeLa; assay: Induction of apoptosis in human HeLa cells assessed as necrotic cells at 3 nM measured after 24 hrs by Annexin V-FITC/7-AAD staining based flow cytometric analysis (reference value: 0.45%); format: functional
[32] = system: HeLa; assay: Antimigratory activity against human HeLa cells at 1.5 nM measured after 24 hrs by scratch wound healing based fluorescence inverted microscopic analysis; format: functional

Sequence of hERG (KCNH2) (Q12809 whole entry): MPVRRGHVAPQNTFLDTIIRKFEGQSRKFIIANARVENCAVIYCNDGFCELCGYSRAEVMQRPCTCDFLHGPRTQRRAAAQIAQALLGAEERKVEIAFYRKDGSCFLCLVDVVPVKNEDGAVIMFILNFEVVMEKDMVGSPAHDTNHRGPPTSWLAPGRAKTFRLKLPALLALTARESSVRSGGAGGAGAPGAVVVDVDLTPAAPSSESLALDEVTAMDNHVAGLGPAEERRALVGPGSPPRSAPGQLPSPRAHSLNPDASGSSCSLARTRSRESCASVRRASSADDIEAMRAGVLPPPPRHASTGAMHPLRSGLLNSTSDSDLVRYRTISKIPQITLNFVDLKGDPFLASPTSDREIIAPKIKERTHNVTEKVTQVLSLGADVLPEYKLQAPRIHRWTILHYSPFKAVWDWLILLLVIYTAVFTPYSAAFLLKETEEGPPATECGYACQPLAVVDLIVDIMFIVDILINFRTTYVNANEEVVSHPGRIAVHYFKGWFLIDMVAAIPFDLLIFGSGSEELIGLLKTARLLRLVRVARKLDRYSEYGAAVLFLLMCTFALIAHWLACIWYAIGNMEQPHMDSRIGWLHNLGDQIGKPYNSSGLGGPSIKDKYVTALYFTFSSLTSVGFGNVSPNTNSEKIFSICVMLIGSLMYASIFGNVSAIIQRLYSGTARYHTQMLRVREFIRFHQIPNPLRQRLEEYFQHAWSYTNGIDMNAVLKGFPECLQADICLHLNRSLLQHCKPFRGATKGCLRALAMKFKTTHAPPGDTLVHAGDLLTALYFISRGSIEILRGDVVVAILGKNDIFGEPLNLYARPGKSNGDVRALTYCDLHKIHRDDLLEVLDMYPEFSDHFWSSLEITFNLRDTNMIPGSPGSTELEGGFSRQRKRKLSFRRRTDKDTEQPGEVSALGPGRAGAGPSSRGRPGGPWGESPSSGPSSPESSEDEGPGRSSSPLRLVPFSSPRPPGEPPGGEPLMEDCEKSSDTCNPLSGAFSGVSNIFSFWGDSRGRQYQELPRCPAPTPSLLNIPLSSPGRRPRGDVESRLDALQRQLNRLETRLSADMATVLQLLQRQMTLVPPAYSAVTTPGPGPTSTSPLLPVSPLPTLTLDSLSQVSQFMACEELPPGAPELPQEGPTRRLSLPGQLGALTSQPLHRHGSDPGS
Sequence of Tubulin (Sus scrofa) (P02550 whole entry, looked up): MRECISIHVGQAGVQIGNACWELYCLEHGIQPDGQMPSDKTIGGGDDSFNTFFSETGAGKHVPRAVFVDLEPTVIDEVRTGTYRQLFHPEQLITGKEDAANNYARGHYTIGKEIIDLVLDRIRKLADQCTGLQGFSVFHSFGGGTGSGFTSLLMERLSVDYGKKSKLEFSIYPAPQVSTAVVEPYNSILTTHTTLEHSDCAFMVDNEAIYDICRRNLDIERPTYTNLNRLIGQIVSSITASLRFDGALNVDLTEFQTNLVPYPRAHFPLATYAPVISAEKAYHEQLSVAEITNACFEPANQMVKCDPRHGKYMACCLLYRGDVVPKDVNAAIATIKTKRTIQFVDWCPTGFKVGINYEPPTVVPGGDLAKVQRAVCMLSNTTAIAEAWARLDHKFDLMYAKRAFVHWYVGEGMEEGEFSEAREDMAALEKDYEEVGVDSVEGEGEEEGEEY
Sequence of Tubulin (Sus scrofa) (P02554 whole entry, looked up): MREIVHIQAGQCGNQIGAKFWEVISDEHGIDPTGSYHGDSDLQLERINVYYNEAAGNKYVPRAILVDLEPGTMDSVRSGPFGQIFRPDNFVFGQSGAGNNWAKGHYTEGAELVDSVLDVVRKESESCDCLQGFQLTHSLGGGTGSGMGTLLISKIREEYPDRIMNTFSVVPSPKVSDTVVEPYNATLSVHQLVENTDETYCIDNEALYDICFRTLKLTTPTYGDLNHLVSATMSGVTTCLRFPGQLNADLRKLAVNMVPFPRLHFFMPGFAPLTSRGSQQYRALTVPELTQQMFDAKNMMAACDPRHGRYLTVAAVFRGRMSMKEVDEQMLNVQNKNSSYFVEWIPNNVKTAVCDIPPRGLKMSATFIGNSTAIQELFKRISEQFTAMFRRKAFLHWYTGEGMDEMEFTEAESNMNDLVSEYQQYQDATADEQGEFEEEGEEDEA

SMILES: CCOc1ccc(-c2cncnc2-c2cc(OC)c(OC)c(OC)c2)cc1Cl
- Activity [1]: 77%
- Activity [2]: 7.04%
- Activity [3]: 0.26%
- Activity [4]: 0.82%
- Activity [5]: 24.7%
- Activity [6]: 21.6%
- Activity [7]: 24.7%
- viability at 0.1 µM [8]: 56.3%
- Activity [9]: 7.29%
- Activity [10]: 51.5%
- Activity [11]: 40%
- AUC(0-t) [12]: 5610 ng·h/mL
- CL/F [13]: 84.2 mL/min/kg
- Activity [14]: 3.88 g
- Activity [15]: Non-Toxic
- inhibition at 40 µM [16]: 65%
- Activity [17]: Non-Toxic
- Activity [18]: 23%
- Activity [19]: 1.3%
- Activity [20]: Non-Toxic
- Ratio IC50 [21]: 2.7
- Activity [22]: 2

SMILES: COc1ccc(/C=C\c2cc(OC)c(OC)c(OC)c2)cc1O [COMBRETASTATIN A4]
- Activity [23]: 25.9%
- Activity [24]: 22.5%
- Activity [25]: 17%
- Activity [26]: 22.5%
- Activity [27]: 28.2%
- Activity [28]: 35.3%
- Activity [29]: 23.5%
- Activity [30]: 6.68%
- Activity [31]: 0.64%
- Activity [32]: 25%
